{"source": "patent US20220088016A1", "about": "“CANCER TREATMENT USING MULTI-TARGETED KINASE INHIBITOR IN COMBINATION OF PROTEIN KINASE BIOMARKERS” (ZHEJIANG CROWNMAB BIOTECH CO. LTD., priority 2019, published 2022)", "key": {"[1]": {"biological_target": "ABL1 (E255K)-phosphorylated (Homo sapiens, UniProt P00519, E255K)", "assay": "Kinase profiling", "type": "binding", "conditions": "read-out: % Ctrl @ 1000 nM"}, "[2]": {"biological_target": "ABL1 (F317L)-phosphorylated (Homo sapiens, UniProt P00519, F317L)", "assay": "Kinase profiling", "type": "binding", "conditions": "read-out: % Ctrl @ 1000 nM"}, "ADCK3": {"biological_target": "ADCK3 (Homo sapiens, UniProt Q8NI60)", "assay": "Kinase profiling", "type": "binding", "conditions": "read-out: % Ctrl @ 1000 nM"}, "BMPR2": {"biological_target": "BMPR2 (Homo sapiens, UniProt Q13873)", "assay": "Kinase profiling", "type": "binding", "conditions": "read-out: % Ctrl @ 1000 nM"}, "BRAF": {"biological_target": "BRAF (Homo sapiens, UniProt P15056)", "assay": "Kinase profiling", "type": "binding", "conditions": "read-out: % Ctrl @ 1000 nM"}, "CDK2": {"biological_target": "CDK2 (Homo sapiens, UniProt P24941)", "assay": "Kinase profiling", "type": "binding", "conditions": "read-out: % Ctrl @ 1000 nM"}, "CLK1": {"biological_target": "CLK1 (Homo sapiens, UniProt P49759)", "assay": "Kinase profiling", "type": "binding", "conditions": "read-out: % Ctrl @ 1000 nM"}, "CSF1R-autoinhibited": {"biological_target": "CSF1R-autoinhibited (Homo sapiens, UniProt P07333)", "assay": "Kinase profiling", "type": "binding", "conditions": "read-out: % Ctrl @ 1000 nM"}, "CSNK1E": {"biological_target": "CSNK1E (Homo sapiens, UniProt P49674)", "assay": "Kinase profiling", "type": "binding", "conditions": "read-out: % Ctrl @ 1000 nM"}, "DAPK1": {"biological_target": "DAPK1 (Homo sapiens, UniProt P53355)", "sequence (P53355 whole entry)": "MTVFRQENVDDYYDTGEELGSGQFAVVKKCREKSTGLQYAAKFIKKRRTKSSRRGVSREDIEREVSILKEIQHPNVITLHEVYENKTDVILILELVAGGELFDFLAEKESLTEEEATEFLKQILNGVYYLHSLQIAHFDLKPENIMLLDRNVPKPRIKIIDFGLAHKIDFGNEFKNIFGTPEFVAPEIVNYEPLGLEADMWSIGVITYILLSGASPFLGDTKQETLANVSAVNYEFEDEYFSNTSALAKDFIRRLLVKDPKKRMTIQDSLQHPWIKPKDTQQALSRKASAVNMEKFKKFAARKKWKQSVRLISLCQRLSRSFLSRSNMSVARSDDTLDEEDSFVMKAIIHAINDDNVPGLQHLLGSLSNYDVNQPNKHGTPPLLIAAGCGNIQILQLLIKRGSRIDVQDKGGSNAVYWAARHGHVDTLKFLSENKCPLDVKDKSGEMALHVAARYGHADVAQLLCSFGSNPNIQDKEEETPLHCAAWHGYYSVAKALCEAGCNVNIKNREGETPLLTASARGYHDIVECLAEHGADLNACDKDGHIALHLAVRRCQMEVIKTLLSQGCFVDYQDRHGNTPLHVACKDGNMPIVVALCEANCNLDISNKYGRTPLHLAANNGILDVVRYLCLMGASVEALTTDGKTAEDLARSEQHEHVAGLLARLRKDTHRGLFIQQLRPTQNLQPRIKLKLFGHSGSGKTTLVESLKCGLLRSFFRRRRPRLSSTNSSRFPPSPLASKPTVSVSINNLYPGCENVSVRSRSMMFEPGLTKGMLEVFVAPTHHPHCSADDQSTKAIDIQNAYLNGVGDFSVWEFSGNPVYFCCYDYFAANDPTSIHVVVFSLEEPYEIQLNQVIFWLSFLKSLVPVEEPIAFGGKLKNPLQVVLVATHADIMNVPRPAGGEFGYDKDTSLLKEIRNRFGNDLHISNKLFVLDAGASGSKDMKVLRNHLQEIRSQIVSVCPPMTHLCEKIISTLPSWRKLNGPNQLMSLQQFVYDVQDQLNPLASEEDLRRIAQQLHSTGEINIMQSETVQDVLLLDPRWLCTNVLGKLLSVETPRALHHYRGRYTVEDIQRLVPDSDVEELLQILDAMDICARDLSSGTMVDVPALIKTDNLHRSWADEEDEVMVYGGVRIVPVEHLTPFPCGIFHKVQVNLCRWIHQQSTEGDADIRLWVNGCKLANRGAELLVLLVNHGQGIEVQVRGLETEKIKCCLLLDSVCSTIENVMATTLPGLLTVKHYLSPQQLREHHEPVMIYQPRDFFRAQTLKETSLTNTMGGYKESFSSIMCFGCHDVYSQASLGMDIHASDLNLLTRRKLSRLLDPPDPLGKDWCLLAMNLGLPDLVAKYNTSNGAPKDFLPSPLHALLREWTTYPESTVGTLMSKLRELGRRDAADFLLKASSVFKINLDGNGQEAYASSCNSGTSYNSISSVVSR", "assay": "Kinase profiling", "type": "binding", "conditions": "read-out: % Ctrl @ 1000 nM"}, "EGFR (G719C)": {"biological_target": "EGFR (G719C) (Homo sapiens, UniProt P00533, G719C)", "assay": "Kinase profiling", "type": "binding", "conditions": "read-out: % Ctrl @ 1000 nM"}, "[3]": {"biological_target": "EGFR (L747-T751del, Sins) (Homo sapiens, UniProt P00533, DEL747-750/T751S)", "assay": "Kinase profiling", "type": "binding", "conditions": "read-out: % Ctrl @ 1000 nM"}, "EGFR (L858R, T790M)": {"biological_target": "EGFR (L858R, T790M) (Homo sapiens, UniProt P00533, L858R/T790M)", "assay": "Kinase profiling", "type": "binding", "conditions": "read-out: % Ctrl @ 1000 nM"}, "FLT3": {"biological_target": "FLT3 (Homo sapiens, UniProt P36888)", "assay": "Kinase profiling", "type": "binding", "conditions": "read-out: % Ctrl @ 1000 nM"}, "FLT3 (D835V)": {"biological_target": "FLT3 (D835V) (Homo sapiens, UniProt P36888, D835V)", "assay": "Kinase profiling", "type": "binding", "conditions": "read-out: % Ctrl @ 1000 nM"}, "FLT3 (D835Y)": {"biological_target": "FLT3 (D835Y) (Homo sapiens, UniProt P36888, D835Y)", "assay": "Kinase profiling", "type": "binding", "conditions": "read-out: % Ctrl @ 1000 nM"}, "FLT4": {"biological_target": "FLT4 (Homo sapiens, UniProt P35916)", "assay": "Kinase profiling", "type": "binding", "conditions": "read-out: % Ctrl @ 1000 nM"}, "GRK7": {"biological_target": "GRK7 (Homo sapiens, UniProt Q8WTQ7)", "sequence (Q8WTQ7 whole entry)": "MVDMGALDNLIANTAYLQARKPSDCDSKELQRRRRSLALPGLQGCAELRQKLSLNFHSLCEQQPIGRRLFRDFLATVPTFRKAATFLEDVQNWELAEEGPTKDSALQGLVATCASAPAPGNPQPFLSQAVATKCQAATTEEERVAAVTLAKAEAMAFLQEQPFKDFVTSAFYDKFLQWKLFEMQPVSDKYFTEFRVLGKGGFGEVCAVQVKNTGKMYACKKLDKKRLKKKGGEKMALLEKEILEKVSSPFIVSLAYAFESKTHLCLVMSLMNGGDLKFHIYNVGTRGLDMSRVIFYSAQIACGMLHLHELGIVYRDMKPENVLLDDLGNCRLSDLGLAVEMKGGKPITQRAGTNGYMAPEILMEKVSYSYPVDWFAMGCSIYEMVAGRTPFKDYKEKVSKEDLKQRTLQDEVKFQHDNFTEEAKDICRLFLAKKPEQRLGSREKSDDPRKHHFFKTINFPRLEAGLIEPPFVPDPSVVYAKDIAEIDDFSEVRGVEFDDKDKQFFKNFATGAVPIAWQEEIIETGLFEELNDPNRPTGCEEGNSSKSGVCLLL", "assay": "Kinase profiling", "type": "binding", "conditions": "read-out: % Ctrl @ 1000 nM"}, "LATS2": {"biological_target": "LATS2 (Homo sapiens, UniProt Q9NRM7)", "assay": "Kinase profiling", "type": "binding", "conditions": "read-out: % Ctrl @ 1000 nM"}, "MAP3K2": {"biological_target": "MAP3K2 (Homo sapiens, UniProt Q9Y2U5)", "assay": "Kinase profiling", "type": "binding", "conditions": "read-out: % Ctrl @ 1000 nM"}, "MAP3K3": {"biological_target": "MAP3K3 (Homo sapiens, UniProt Q99759)", "assay": "Kinase profiling", "type": "binding", "conditions": "read-out: % Ctrl @ 1000 nM"}, "MARK4": {"biological_target": "MARK4 (Homo sapiens, UniProt Q96L34)", "assay": "Kinase profiling", "type": "binding", "conditions": "read-out: % Ctrl @ 1000 nM"}, "MET (Y1235D)": {"biological_target": "T1, MET (Y1235D) (Homo sapiens, UniProt P08581, Y1235D)", "T1 construct": "T7 phage fusion (stated for most kinases of the panel only); made in house; host or cells: T7 phage in E. coli (BL21-derived) or HEK-293 cells", "assay": "Kinase profiling", "type": "binding", "conditions": "read-out: % Ctrl @ 1000 nM"}, "MYO3B": {"biological_target": "T2, MYO3B (Homo sapiens, UniProt Q8WXR4)", "T2 construct": "T7 phage fusion (said for most assays); made in house", "assay": "Kinase profiling", "type": "binding", "conditions": "read-out: % Ctrl @ 1000 nM"}, "PAK7": {"biological_target": "PAK7 (Homo sapiens, UniProt Q9P286)", "sequence (Q9P286 whole entry)": "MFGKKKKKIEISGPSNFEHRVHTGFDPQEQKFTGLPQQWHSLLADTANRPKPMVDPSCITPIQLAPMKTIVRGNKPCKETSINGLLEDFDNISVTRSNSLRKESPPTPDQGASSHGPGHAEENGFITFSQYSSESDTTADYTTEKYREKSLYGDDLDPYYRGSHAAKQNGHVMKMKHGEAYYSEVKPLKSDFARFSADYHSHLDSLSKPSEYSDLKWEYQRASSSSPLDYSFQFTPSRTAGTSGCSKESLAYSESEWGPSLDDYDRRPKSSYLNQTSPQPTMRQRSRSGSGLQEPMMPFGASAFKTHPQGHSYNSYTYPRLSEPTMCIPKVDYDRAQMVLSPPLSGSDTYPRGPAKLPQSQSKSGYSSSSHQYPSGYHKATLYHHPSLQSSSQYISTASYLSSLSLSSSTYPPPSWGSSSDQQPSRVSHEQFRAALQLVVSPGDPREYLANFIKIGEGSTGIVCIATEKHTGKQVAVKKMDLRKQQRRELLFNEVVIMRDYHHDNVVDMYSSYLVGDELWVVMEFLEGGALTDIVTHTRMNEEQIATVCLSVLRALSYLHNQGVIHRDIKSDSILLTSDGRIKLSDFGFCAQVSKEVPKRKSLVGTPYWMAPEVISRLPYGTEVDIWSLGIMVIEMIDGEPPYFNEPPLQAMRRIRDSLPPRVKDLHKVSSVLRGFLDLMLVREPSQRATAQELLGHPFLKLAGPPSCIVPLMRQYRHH", "assay": "Kinase profiling", "type": "binding", "conditions": "read-out: % Ctrl @ 1000 nM"}, "PIM2": {"biological_target": "PIM2 (Homo sapiens, UniProt Q9P1W9)", "assay": "Kinase profiling", "type": "binding", "conditions": "read-out: % Ctrl @ 1000 nM"}, "PKAC-alpha": {"biological_target": "PKAC-alpha (Homo sapiens, UniProt P17612)", "assay": "Kinase profiling", "type": "binding", "conditions": "read-out: % Ctrl @ 1000 nM"}, "PLK2": {"biological_target": "PLK2 (Homo sapiens, UniProt Q9NYY3)", "assay": "Kinase profiling", "type": "binding", "conditions": "read-out: % Ctrl @ 1000 nM"}, "[4]": {"biological_target": "RSK1 (Kin.Dom.1-N-terminal) (Homo sapiens, UniProt Q15418)", "assay": "Kinase profiling", "type": "binding", "conditions": "read-out: % Ctrl @ 1000 nM"}, "SNARK": {"biological_target": "SNARK (Homo sapiens, UniProt Q9H093)", "assay": "Kinase profiling", "type": "binding", "conditions": "read-out: % Ctrl @ 1000 nM"}, "SRC": {"biological_target": "SRC (Homo sapiens, UniProt P12931)", "assay": "Kinase profiling", "type": "binding", "conditions": "read-out: % Ctrl @ 1000 nM"}, "TAOK2": {"biological_target": "TAOK2 (Homo sapiens, UniProt Q9UL54)", "sequence (Q9UL54 whole entry)": "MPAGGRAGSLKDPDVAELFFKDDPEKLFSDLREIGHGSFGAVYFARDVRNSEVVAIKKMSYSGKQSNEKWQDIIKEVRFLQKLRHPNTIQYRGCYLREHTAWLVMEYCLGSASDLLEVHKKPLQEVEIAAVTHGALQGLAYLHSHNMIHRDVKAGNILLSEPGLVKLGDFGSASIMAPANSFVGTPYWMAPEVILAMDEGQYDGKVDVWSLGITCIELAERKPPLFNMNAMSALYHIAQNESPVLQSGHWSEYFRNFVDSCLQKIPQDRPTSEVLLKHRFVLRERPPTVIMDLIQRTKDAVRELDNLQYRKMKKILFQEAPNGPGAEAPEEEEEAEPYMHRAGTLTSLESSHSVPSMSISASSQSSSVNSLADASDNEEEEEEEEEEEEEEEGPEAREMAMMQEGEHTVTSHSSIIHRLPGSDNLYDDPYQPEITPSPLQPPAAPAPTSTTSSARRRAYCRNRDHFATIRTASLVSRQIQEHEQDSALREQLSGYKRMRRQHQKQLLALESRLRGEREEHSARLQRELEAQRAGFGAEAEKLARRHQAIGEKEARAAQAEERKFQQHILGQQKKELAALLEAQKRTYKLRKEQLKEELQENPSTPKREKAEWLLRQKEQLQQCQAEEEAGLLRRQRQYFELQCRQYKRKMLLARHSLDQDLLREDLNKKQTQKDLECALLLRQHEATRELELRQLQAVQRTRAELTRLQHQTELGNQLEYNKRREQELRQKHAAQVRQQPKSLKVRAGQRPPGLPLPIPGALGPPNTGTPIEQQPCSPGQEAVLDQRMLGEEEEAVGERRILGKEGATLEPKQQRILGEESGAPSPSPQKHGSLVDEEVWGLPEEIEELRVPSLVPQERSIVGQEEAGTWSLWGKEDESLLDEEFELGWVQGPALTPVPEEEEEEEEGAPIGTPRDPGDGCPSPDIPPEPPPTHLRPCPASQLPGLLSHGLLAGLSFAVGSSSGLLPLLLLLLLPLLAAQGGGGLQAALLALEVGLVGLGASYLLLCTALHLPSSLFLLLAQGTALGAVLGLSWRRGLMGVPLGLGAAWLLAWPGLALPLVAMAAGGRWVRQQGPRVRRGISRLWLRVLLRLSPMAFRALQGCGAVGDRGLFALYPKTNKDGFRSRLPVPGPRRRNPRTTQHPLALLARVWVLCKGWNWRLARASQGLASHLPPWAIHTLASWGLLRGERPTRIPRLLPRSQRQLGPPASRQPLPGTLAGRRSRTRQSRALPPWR", "assay": "Kinase profiling", "type": "binding", "conditions": "read-out: % Ctrl @ 1000 nM"}, "TGFBR2": {"biological_target": "TGFBR2 (Homo sapiens, UniProt P37173)", "assay": "Kinase profiling", "type": "binding", "conditions": "read-out: % Ctrl @ 1000 nM"}, "TIE1": {"biological_target": "TIE1 (Homo sapiens, UniProt P35590)", "assay": "Kinase profiling", "type": "binding", "conditions": "read-out: % Ctrl @ 1000 nM"}, "TTK": {"biological_target": "TTK (Homo sapiens, UniProt P33981)", "assay": "Kinase profiling", "type": "binding", "conditions": "read-out: % Ctrl @ 1000 nM"}, "ULK2": {"biological_target": "ULK2 (Homo sapiens, UniProt Q8IYT8)", "sequence (Q8IYT8 whole entry)": "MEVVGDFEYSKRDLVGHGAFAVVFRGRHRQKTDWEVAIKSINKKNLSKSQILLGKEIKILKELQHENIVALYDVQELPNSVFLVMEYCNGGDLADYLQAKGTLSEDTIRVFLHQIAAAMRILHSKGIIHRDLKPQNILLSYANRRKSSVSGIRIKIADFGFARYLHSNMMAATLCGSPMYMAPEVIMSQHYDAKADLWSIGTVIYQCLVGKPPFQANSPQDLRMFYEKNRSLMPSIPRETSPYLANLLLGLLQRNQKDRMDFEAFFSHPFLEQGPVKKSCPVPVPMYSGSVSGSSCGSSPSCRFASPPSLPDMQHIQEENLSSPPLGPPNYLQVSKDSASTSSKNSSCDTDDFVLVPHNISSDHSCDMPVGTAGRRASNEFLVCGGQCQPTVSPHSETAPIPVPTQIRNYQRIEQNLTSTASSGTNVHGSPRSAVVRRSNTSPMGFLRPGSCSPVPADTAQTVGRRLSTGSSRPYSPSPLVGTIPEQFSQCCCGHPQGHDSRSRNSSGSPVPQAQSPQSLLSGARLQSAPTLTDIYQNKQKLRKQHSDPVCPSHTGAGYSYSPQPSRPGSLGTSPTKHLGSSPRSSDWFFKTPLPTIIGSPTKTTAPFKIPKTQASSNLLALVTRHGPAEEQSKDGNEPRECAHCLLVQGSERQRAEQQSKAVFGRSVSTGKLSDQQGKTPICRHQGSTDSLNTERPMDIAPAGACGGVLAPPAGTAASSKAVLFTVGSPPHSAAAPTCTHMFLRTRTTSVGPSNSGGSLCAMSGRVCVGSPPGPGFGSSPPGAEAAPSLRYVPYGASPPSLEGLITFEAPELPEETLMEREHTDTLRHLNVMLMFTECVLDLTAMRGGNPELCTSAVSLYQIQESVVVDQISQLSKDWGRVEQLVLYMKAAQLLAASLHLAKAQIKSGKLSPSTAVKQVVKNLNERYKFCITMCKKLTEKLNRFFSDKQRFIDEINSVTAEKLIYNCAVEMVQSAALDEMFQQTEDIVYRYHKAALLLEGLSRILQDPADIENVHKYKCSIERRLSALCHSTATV", "assay": "Kinase profiling", "type": "binding", "conditions": "read-out: % Ctrl @ 1000 nM"}, "403 non-mutant kinases": {"tested_on": "403 non-mutant kinases", "assay": "Selectivity Score from kinase profiling", "method": "Streptavidin-coated magnetic beads were treated with biotinylated small molecule ligands of the kinases for 30 minutes at room temperature to generate affinity resins for kinase assays. The liganded beads were blocked with excess biotin and washed with blocking buffer (SeaBlock (Pierce), 1% BSA, 0.05% Tween 20, 1 mM DTT) to remove unbound ligand and to reduce non-specific phage binding. Binding reactions were assembled by combining kinases, liganded affinity beads, and test compounds in 1× binding buffer (20% SeaBlock, 0.17×PBS, 0.05% Tween 20, 6 mM DTT). Test compounds were prepared as 40× stocks in 100% DMSO and directly diluted into the assay. All reactions were performed in polypropylene 384-well plates in a final volume of 0.04 ml. The assay plates were incubated at room temperature with shaking for 1 hour and the affinity beads were washed with wash buffer (1×PBS, 0.05% Tween 20). The beads were then re-suspended in elution buffer (1×PBS, 0.05% Tween 20, 0.5 μM non-biotinylated affinity ligand) and incubated at room temperature with shaking for 30 minutes. The kinase concentration in the eluates was measured by qPCR.\nSelectivity Score or S-score is a quantitative measure of compound selectivity. It is calculated by dividing the number of kinases that compounds bind to by the total number of distinct kinases tested, excluding mutant variants.\nS=Number of hits/Number of assays\nThis value can be calculated using % Ctrl as a potency threshold (below) and provides a quantitative method of describing compound selectivity to facilitate comparison of different compounds.\nS(35)=(number of non-mutant kinases with % Ctrl<35)/(number of non-mutant kinases tested)\nS(10)=(number of non-mutant kinases with % Ctrl<10)/(number of non-mutant kinases tested)\nS(1)=(number of non-mutant kinases with % Ctrl<1)/(number of non-mutant kinases tested)"}}, "data": [{"smiles": "Cc1cc(Oc2cc(NC(=O)C3CC3)ncn2)ccc1NC(=O)Nc1ccc(Cl)c(C(F)(F)F)c1", "note": "[CBT-102]", "values": [{"measurement": "remaining activity at 1 µM", "setting": "[1]", "value": 92, "unit": "%"}, {"measurement": "remaining activity at 1 µM", "setting": "[2]", "value": 52, "unit": "%"}, {"measurement": "remaining activity at 1 µM", "setting": "ADCK3", "value": 100, "unit": "%"}, {"measurement": "remaining activity at 1 µM", "setting": "BMPR2", "value": 82, "unit": "%"}, {"measurement": "remaining activity at 1 µM", "setting": "BRAF", "value": 6.1, "unit": "%"}, {"measurement": "remaining activity at 1 µM", "setting": "CDK2", "value": 69, "unit": "%"}, {"measurement": "remaining activity at 1 µM", "setting": "CLK1", "value": 98, "unit": "%"}, {"measurement": "remaining activity at 1 µM", "setting": "CSF1R-autoinhibited", "value": 60, "unit": "%"}, {"measurement": "remaining activity at 1 µM", "setting": "CSNK1E", "value": 100, "unit": "%"}, {"measurement": "remaining activity at 1 µM", "setting": "DAPK1", "value": 98, "unit": "%"}, {"measurement": "remaining activity at 1 µM", "setting": "EGFR (G719C)", "value": 66, "unit": "%"}, {"measurement": "remaining activity at 1 µM", "setting": "[3]", "value": 88, "unit": "%"}, {"measurement": "remaining activity at 1 µM", "setting": "EGFR (L858R, T790M)", "value": 86, "unit": "%"}, {"measurement": "remaining activity at 1 µM", "setting": "FLT3", "value": 2.3, "unit": "%"}, {"measurement": "remaining activity at 1 µM", "setting": "FLT3 (D835V)", "value": 95, "unit": "%"}, {"measurement": "remaining activity at 1 µM", "setting": "FLT3 (D835Y)", "value": 61, "unit": "%"}, {"measurement": "remaining activity at 1 µM", "setting": "FLT4", "value": 0.05, "unit": "%"}, {"measurement": "remaining activity at 1 µM", "setting": "GRK7", "value": 100, "unit": "%"}, {"measurement": "remaining activity at 1 µM", "setting": "LATS2", "value": 100, "unit": "%"}, {"measurement": "remaining activity at 1 µM", "setting": "MAP3K2", "value": 90, "unit": "%"}, {"measurement": "remaining activity at 1 µM", "setting": "MAP3K3", "value": 95, "unit": "%"}, {"measurement": "remaining activity at 1 µM", "setting": "MARK4", "value": 100, "unit": "%"}, {"measurement": "remaining activity at 1 µM", "setting": "MET (Y1235D)", "value": 79, "unit": "%"}, {"measurement": "remaining activity at 1 µM", "setting": "MYO3B", "value": 90, "unit": "%"}, {"measurement": "remaining activity at 1 µM", "setting": "PAK7", "value": 91, "unit": "%"}, {"measurement": "remaining activity at 1 µM", "setting": "PIM2", "value": 100, "unit": "%"}, {"measurement": "remaining activity at 1 µM", "setting": "PKAC-alpha", "value": 97, "unit": "%"}, {"measurement": "remaining activity at 1 µM", "setting": "PLK2", "value": 93, "unit": "%"}, {"measurement": "remaining activity at 1 µM", "setting": "[4]", "value": 100, "unit": "%"}, {"measurement": "remaining activity at 1 µM", "setting": "SNARK", "value": 100, "unit": "%"}, {"measurement": "remaining activity at 1 µM", "setting": "SRC", "value": 76, "unit": "%"}, {"measurement": "remaining activity at 1 µM", "setting": "TAOK2", "value": 23, "unit": "%"}, {"measurement": "remaining activity at 1 µM", "setting": "TGFBR2", "value": 56, "unit": "%"}, {"measurement": "remaining activity at 1 µM", "setting": "TIE1", "value": 20, "unit": "%"}, {"measurement": "remaining activity at 1 µM", "setting": "TTK", "value": 61, "unit": "%"}, {"measurement": "remaining activity at 1 µM", "setting": "ULK2", "value": 98, "unit": "%"}, {"measurement": "Selectivity Score S (1)", "setting": "403 non-mutant kinases; % Ctrl<1, 1000 nM", "value": 0.032}, {"measurement": "Selectivity Score S (10)", "setting": "403 non-mutant kinases; % Ctrl<10, 1000 nM", "value": 0.089}, {"measurement": "Selectivity Score S (35)", "setting": "403 non-mutant kinases; % Ctrl<35, 1000 nM", "value": 0.151}, {"measurement": "Number of Hits, S (1)", "setting": "403 non-mutant kinases; non-mutant kinases with % Ctrl<1, 1000 nM", "value": 13}, {"measurement": "Number of Hits, S (10)", "setting": "403 non-mutant kinases; non-mutant kinases with % Ctrl<10, 1000 nM", "value": 36}, {"measurement": "Number of Hits, S (35)", "setting": "403 non-mutant kinases; non-mutant kinases with % Ctrl<35, 1000 nM", "value": 61}]}]}
